Assay results: patent publication US20090069317A1, “Insecticidal Methods Using 3-Amino-1,2-Benzisothiazole Derivatives” (BASF SE, priority 2005, published 2009)

Key:
[1] = test system: Cotton Aphid (Aphis gossypii); experiment: Cotton aphid (Aphis gossypii) cotyledon dip test, mortality; type: in vivo; conditions: 120 h, cotton cotyledons dipped, mortality counts after 5 days, read-out: mortality in comparison with untreated controls
Description: B.1 Cotton Aphid (Aphis gossypii)
(§1) The active compounds were formulated in 50:50 acetone:water and 100 ppm Kinetic® surfactant.
Cotton plants at the cotyledon stage (one plant per pot) were infested by placing a heavily infested leaf from the main colony on top of each cotyledon. The aphids were allowed to transfer to the host plant overnight, and the leaf used to transfer the aphids was removed. The cotyledons were dipped in the test solution and allowed to dry. After 5 days, mortality counts were made.

[2] = test system: Bean Aphid (Aphis fabae); experiment: Bean aphid (Aphis fabae) nasturtium plant dip test, mortality; type: in vivo; conditions: 72 h, nasturtium plants dipped, aphid mortality after 3 days, read-out: mortality in comparison with untreated controls
Description: B.3. Bean Aphid (Aphis fabae)
as §1
Nasturtium plants grown in Metro mix in the 1st leaf-pair stage (variety ‘Mixed Jewel’) were infested with approximately 20-30 laboratory-reared aphids by placing infested cut plants on top of the test plants. The cut plants were removed after 24 hr. Each plant was dipped into the test solution to provide complete coverage of the foliage, stem, protruding seed surface and surrounding cube surface and allowed to dry in the fume hood. The treated plants were kept at about 25° C. with continuous fluorescent light. Aphid mortality is determined after 3 days.

[3] = test system: Green Peach Aphid (Myzus Persicae); experiment: Green peach aphid (Myzus persicae) pepper leaf dip test, mortality; type: in vivo; conditions: foliar, 120 h, pepper plant leaves dipped, aphid mortality after 5 days, read-out: mortality in comparison with untreated controls
Description: B.2 Green Peach Aphid (Myzus Persicae)
as §1
Pepper plants in the 2nd leaf-pair stage (variety ‘California Wonder’) were infested with approximately 40 laboratory-reared aphids by placing infested leaf sections on top of the test plants. The leaf sections were removed after 24 hr. The leaves of the intact plants were dipped into gradient solutions of the test compound and allowed to dry. Test plants were maintained under fluorescent light (24 hour photoperiod) at about 25° C. and 20-40% relative humidity. Aphid mortality on the treated plants, relative to mortality on check plants, was determined after 5 days.

Compound | mortality at 300 ppm [1] [%] | mortality at 300 ppm [2] [%] | mortality at 300 ppm [3] [%] | melting point [°C]
C#CCN(C1=NS(=O)(=O)c2cccc(OC(F)F)c21)C(C)C [Compound 36] | > 86 | > 86 | > 86 | 
CC(C)N(C1=NS(=O)(=O)c2cccc(Cl)c21)C1CC1 [Compound 6] | > 86 | > 86 | > 86 | 
CN(C)c1nsc2cccc(Cl)c12 [Compound 49] | > 86 | > 86 | > 86 | 
CN(CC#N)C1=NS(=O)(=O)c2cccc(Cl)c21 [Compound 15] | > 86 | > 86 | > 86 | 
C=CCN(CCC)C1=NS(=O)(=O)c2cccc(Cl)c21 [Compound 8] | > 86 | > 86 |  | 
CCN(CC)c1nsc2cccc(OC(F)F)c12 [Compound 59] |  |  |  | 49 to 50
CC(C)N(C1=NS(=O)(=O)c2cccc(Cl)c21)C(C)C [Compound 11] |  | > 86 |  | 
C#CCN(C1=NS(=O)(=O)c2cccc(Cl)c21)C(C)C [Compound 4] | > 86 | > 86 |  | 
COc1c(Br)ccc2snc(N(C)C)c12 [Compound 48, (5-Bromo-4-methoxy-benzo[d]isothiazol-3-yl)-dimethyl-amine] | > 86 |  | > 86 | 
CCON(C1=NS(=O)(=O)c2cccc(OC(F)F)c21)C(C)C [Compound 111] | > 86 |  | > 86 | 
CCN(CC)C1=NS(=O)(=O)c2cccc(OC(F)F)c21 [Compound 31, (4-Difluoromethoxy-1,1-dioxo-1H-1λ^6-benzo[d]isothiazol-3-yl)-diethyl-amine] | > 86 |  | > 86 | 
COc1ccc(F)c2c1C(N(C)OC)=NS2(=O)=O [Compound 108] | > 86 |  | > 86 | 
CN(CC(F)(F)F)C1=NS(=O)(=O)c2cccc(OC(F)F)c21 [Compound 53] | > 86 |  | > 86 | 
CCN(C)C1=NS(=O)(=O)c2cccc(OC)c21 [Compound 30, Ethyl-(4-methoxy-1,1-dioxo-1H-1λ^6-benzo[d]isothiazol-3-yl)-methyl-amine] | > 86 |  | > 86 | 
CN(CC#N)C1=NS(=O)(=O)c2cccc(OC(F)F)c21 [Compound 37] | > 86 |  | > 86 | 
COc1cccc2c1c(N(C)C)n[s+]2[O-] (centres unmarked) [Compound 94] | > 86 |  | > 86 | 
COc1cccc2snc(N(C)Cc3ccccc3)c12 [Compound 92] | > 86 |  | > 86 | 
CCON(C)C1=NS(=O)(=O)c2cccc(OC(F)F)c21 [Compound 110] | > 86 |  | > 86 | 
CCN(Cc1ccccc1)C1=NS(=O)(=O)c2cccc(Cl)c21 [Compound 12] |  | > 86 |  | 
CCCN(C)c1nsc2cccc(Cl)c12 [Compound 87] | > 86 |  | > 86 | 
CC(C)N(O)C1=NS(=O)(=O)c2cccc(Cl)c21 [Compound 98] | > 86 |  | > 86 | 

Compound | mortality at 300 ppm [1] [%] | mortality at 300 ppm [2] [%] | mortality at 300 ppm [3] [%] | melting point [°C]
CON(C)C1=NS(=O)(=O)c2cccc(OC(F)F)c21 [Compound 109] | > 86 |  | > 86 | 
C#CCN(C)C1=NS(=O)(=O)c2cccc(OC(F)F)c21 [Compound 39] | > 86 |  | > 86 | 
CCN(C)C1=NS(=O)(=O)c2cccc(Cl)c21 [Compound 7] | > 86 | > 86 | > 86 | 
CCN(CC)C1=NS(=O)(=O)c2cccc(OC)c21 [Compound 27] | > 86 |  | > 86 | 
CCN(C)C1=NS(=O)(=O)c2cccc(F)c21 [Compound 64] | > 86 |  | > 86 | 
COc1ccc(F)c2c1C(N(C)CC#N)=NS2(=O)=O [Compound 96] | > 86 |  | > 86 | 
CCCN(C)C1=NS(=O)(=O)c2cccc(Cl)c21 [Compound 19] | > 86 |  | > 86 | 
C=CCN(C1=NS(=O)(=O)c2cccc(Cl)c21)C(C)C [Compound 9] | > 86 | > 86 |  | 
CCN(C)C1=NS(=O)(=O)c2cccc(OC(F)F)c21 [Compound 34] | > 86 |  | > 86 | 
CCN(C)c1nsc2cccc(Cl)c12 [Compound 51] | > 86 |  | > 86 | 
CC(C)N(C)C1=NS(=O)(=O)c2cccc(F)c21 [Compound 73] | > 86 |  | > 86 | 
CCN(C)C1=NS(=O)(=O)c2c(F)ccc(OC)c21 [Compound 91] | > 86 |  | > 86 | 
CCN(CC(C)C)C1=NS(=O)(=O)c2cccc(Cl)c21 [Compound 5] | > 86 | > 86 |  | 
CC(C)CN(C)C1=NS(=O)(=O)c2cccc(OC(F)F)c21 [Compound 42] | > 86 |  | > 86 | 
CCCN(C)C1=NS(=O)(=O)c2cccc(OC(F)F)c21 [Compound 38] | > 86 |  | > 86 | 
CCN(CC)C1=NS(=O)(=O)c2cccc(Cl)c21 [Compound 3] | > 86 | > 86 | > 86 | 
CN(C)C1=NS(=O)(=O)c2cccc(Cl)c21 [Compound 2] | > 86 |  | > 86 | 
CON(C)C1=NS(=O)(=O)c2cccc(Cl)c21 [Compound 23] | > 86 | > 86 | > 86 | 
COc1cccc2snc(N(C)CC(C)C)c12 [Compound 83] | > 86 |  | > 86 | 
CCN(CC)c1nsc2cccc(OC)c12 [Compound 76] | > 86 |  | > 86 | 
